Residues, ends and D or L forms follow the SMILES beside them. *: point of attachment. Lauroyl = CCCCCCCCCCCC(=O)*
Molecular target: Chymotrypsin
Experiment: Inhibition of insulin degradation, HPLC assay (Example 201)
Type: biochemical
Settings: for Ki: substrate A14E, B25H, B29K(N(eps)Octadecanedioyl-γGlu-OEG-OEG), desB30 human insulin
Description: Degradation using duodenum lumen enzymes (prepared by filtration of duodenum lumen content) from SPD rats.
Each HPLC vial contained Dulbecco's phosphate buffer saline (DPBS, Invitrogen catalogue #14190-094), A14E, B25H, B29K(N(eps)Octadecanedioyl-γGlu-OEG-OEG), desB30 human insulin, N-terminally acylated peptide or oligopeptide of the invention and enzyme (chymotrypsin, trypsin, elastase or duodenum lumen enzymes).
The assay was performed in an HPLC autosampler equilibrated at 37° C., at specified time points, aliquots were injected directly onto an HPLC column and the amount of the intact A14E, B25H, B29K(N(eps)Octadecanedioyl-γGlu-OEG-OEG), desB30 human insulin was determined. Degradation half life was determined by exponential fitting of the data (for example, single exponential decay, 2 parameters, Sigma Plot version 11, Systat Software) and normalized to half time determined for the reference insulins, or human insulin in each assay. […] This was done by plotting the half life achieved with different concentrations of the N-terminally acylated peptide or oligopeptides of the invention as a function of their concentrations and fitting the experimental results using, for example, sigmoidal logistic regression (2 parameters, Sigma Plot v 11). Inhibition constants for the interaction between the N-terminally acylated peptide or oligopeptides of the invention and proteolytic enzymes were also obtained by performing the assay described above with varying concentrations of the inhibitor and substrate and analyzing the results, for example, by double reciprocal transformation as known to the person skilled in the art and described for example in Hubalek, F. et al., J. Med. Chem. 47, 1760-1766 (2004). Other algorithms known to the person skilled in the art may also be used to determine inhibition constants from the results.

- kind of enzyme inhibition (chymotrypsin, insulin analogue as substrate): mixed inhibition
- Ki (chymotrypsin): ~15 µM
- Ki: 15 µM
Structure (SMILES): CCCCCCCCCCCC(=O)N[C@@H](C)C(=O)N[C@@H](C)C(=O)N1CCC[C@H]1C(=O)N[C@@H](Cc1ccccc1)C(=O)O [Example 34, N-dodecanoyl-Ala-Ala-Pro-Phe-OH] (Lauroyl-AAPF-OH)

— patent US20150038435A1, “N-TERMINALLY MODIFIED OLIGOPEPTIDES AND USES THEREOF” (Novo Nordisk A/S, priority 2012, published 2015)
